# Laboratory results reported in ChEMBL document CHEMBL3885861, “Open TG-GATES”.
# Species: Rattus norvegicus
# Test: Open TG-GATES - Regimen: Single
# Type: toxicity, organism-based, Sprague-Dawley
# Set-up: regimen Single, gender Male, age 6 weeks
# Conditions: in vivo, po, 1000 mg/kg, route gavage, dose level Middle; for APTT / Bas / Eos / Fbg / Hb / Ht / Lym / MCH / MCHC / MCV / Mono / Neu / PT / Plat / RBC / Ret / WBC: tissue Blood; for KIDNEY_L / KIDNEY_R / KIDNEY_TOTAL: tissue Kidney; for LIVER: tissue Liver; for A/G / ALP / ALT / AST / BUN / CRE / Ca / Cl / DBIL / GLC / IP / K / LDH / Na / PL / RALB / TBIL / TC / TG / TP / gamma-GTP: tissue Plasma
compound,measurement,setting,value
CCN1CCCC1CNC(=O)c1cc(S(N)(=O)=O)ccc1OC (configuration not stated) [SULPIRIDE],TERMINAL_BW,3 h,201.4 g
same,APTT,3 h,17.3 s
same,Bas,3 h,0%
same,Eos,3 h,0.6%
same,Fbg,3 h,253.4 mg/dL
same,Hb,3 h,12.6 g/dL
same,Ht,3 h,39.6%
same,Lym,3 h,78.4%
same,MCH,3 h,20.8 pg
same,MCHC,3 h,31.8%
same,MCV,3 h,65.2 fL
same,Mono,3 h,3.4%
same,Neu,3 h,16.8%
same,PT,3 h,13.6 s
same,Plat,3 h,109.3 x10_4/uL
same,RBC,3 h,608 x10_4/ul
same,Ret,3 h,8.1%
same,WBC,3 h,83.5 x10_2/uL
same,KIDNEY_L,3 h,0.9 g
same,KIDNEY_R,3 h,0.9 g
same,KIDNEY_TOTAL,3 h,1.8 g
same,LIVER,3 h,9.2 g
same,A/G,3 h,0.9
same,ALP,3 h,1375.8 IU/L
same,ALT,3 h,36.6 IU/L
same,AST,3 h,74.2 IU/L
same,BUN,3 h,10.4 mg/dL
same,CRE,3 h,0.2 mg/dL
same,Ca,3 h,10.8 mg/dL
same,Cl,3 h,106.6 meq/L
same,DBIL,3 h,0.004 mg/dL
same,GLC,3 h,169.8 mg/dL
same,IP,3 h,8.2 mg/dL
same,K,3 h,4 meq/L
same,LDH,3 h,116.6 IU/L
same,Na,3 h,142.6 meq/L
same,PL,3 h,126.2 mg/dL
same,RALB,3 h,2.4 g/dL
same,TBIL,3 h,0.068 mg/dL
same,TC,3 h,63.4 mg/dL
same,TG,3 h,54.2 mg/dL
same,TP,3 h,5.1 g/dL
same,gamma-GTP,3 h,1.8 IU/L
same,TERMINAL_BW,6 h,201.9 g
same,APTT,6 h,18.2 s
same,Bas,6 h,0.2%
same,Eos,6 h,0.8%
same,Fbg,6 h,279.2 mg/dL
same,Hb,6 h,13.1 g/dL
same,Ht,6 h,40.9%
same,Lym,6 h,79.6%
same,MCH,6 h,20.9 pg
same,MCHC,6 h,32.1%
same,MCV,6 h,65.2 fL
same,Mono,6 h,3%
same,Neu,6 h,15.8%
same,PT,6 h,13.5 s
same,Plat,6 h,123.7 x10_4/uL
same,RBC,6 h,628.2 x10_4/ul
same,Ret,6 h,8.4%
same,WBC,6 h,61.1 x10_2/uL
same,KIDNEY_L,6 h,0.9 g
same,KIDNEY_R,6 h,0.9 g
same,KIDNEY_TOTAL,6 h,1.7 g
same,LIVER,6 h,8.4 g
same,A/G,6 h,0.9
same,ALP,6 h,1420 IU/L
same,ALT,6 h,35.2 IU/L
same,AST,6 h,69.8 IU/L
same,BUN,6 h,8 mg/dL
same,CRE,6 h,0.2 mg/dL
same,Ca,6 h,10.7 mg/dL
same,Cl,6 h,107.4 meq/L
same,DBIL,6 h,0.006 mg/dL
same,GLC,6 h,175 mg/dL
same,IP,6 h,8.9 mg/dL
same,K,6 h,4.1 meq/L
same,LDH,6 h,101.8 IU/L
same,Na,6 h,142 meq/L
same,PL,6 h,137.8 mg/dL
same,RALB,6 h,2.4 g/dL
same,TBIL,6 h,0.07 mg/dL
same,TC,6 h,76.2 mg/dL
same,TG,6 h,45.6 mg/dL
same,TP,6 h,5.1 g/dL
same,gamma-GTP,6 h,1.4 IU/L
same,TERMINAL_BW,9 h,201.7 g
same,APTT,9 h,17.2 s
same,Bas,9 h,0%
same,Eos,9 h,1%
same,Fbg,9 h,308 mg/dL
same,Hb,9 h,13.7 g/dL
same,Ht,9 h,43%
same,Lym,9 h,71.2%
same,MCH,9 h,20.7 pg
same,MCHC,9 h,31.8%
same,MCV,9 h,65 fL
same,Mono,9 h,3.6%
same,Neu,9 h,23.8%
same,PT,9 h,13.3 s
same,Plat,9 h,131.4 x10_4/uL
same,RBC,9 h,661 x10_4/ul
same,Ret,9 h,7.7%
same,WBC,9 h,64.3 x10_2/uL
same,KIDNEY_L,9 h,0.9 g
same,KIDNEY_R,9 h,0.9 g
same,KIDNEY_TOTAL,9 h,1.8 g
same,LIVER,9 h,8.3 g
same,A/G,9 h,0.9
same,ALP,9 h,1435.8 IU/L
same,ALT,9 h,28.6 IU/L
same,AST,9 h,63.2 IU/L
same,BUN,9 h,7.6 mg/dL
same,CRE,9 h,0.2 mg/dL
same,Ca,9 h,10.7 mg/dL
same,Cl,9 h,107.6 meq/L
same,DBIL,9 h,0.002 mg/dL
same,GLC,9 h,178.2 mg/dL
same,IP,9 h,9.7 mg/dL
same,K,9 h,4 meq/L
same,LDH,9 h,106.2 IU/L
same,Na,9 h,141.6 meq/L
same,PL,9 h,151 mg/dL
same,RALB,9 h,2.5 g/dL
same,TBIL,9 h,0.066 mg/dL
same,TC,9 h,83.8 mg/dL
same,TG,9 h,65.2 mg/dL
same,TP,9 h,5.3 g/dL
same,gamma-GTP,9 h,1.2 IU/L
same,TERMINAL_BW,24 h,214.6 g
same,APTT,24 h,17.3 s
same,Bas,24 h,0%
same,Eos,24 h,1%
same,Fbg,24 h,290.8 mg/dL
same,Hb,24 h,13.9 g/dL
same,Ht,24 h,42.1%
same,Lym,24 h,77.8%
same,MCH,24 h,20.7 pg
same,MCHC,24 h,32.9%
same,MCV,24 h,62.9 fL
same,Mono,24 h,2.4%
same,Neu,24 h,18.4%
same,PT,24 h,12.8 s
same,Plat,24 h,123 x10_4/uL
same,RBC,24 h,670.2 x10_4/ul
same,Ret,24 h,6.7%
same,WBC,24 h,66.8 x10_2/uL
same,KIDNEY_L,24 h,0.9 g
same,KIDNEY_R,24 h,0.9 g
same,KIDNEY_TOTAL,24 h,1.9 g
same,LIVER,24 h,9.4 g
same,A/G,24 h,0.9
same,ALP,24 h,1599.4 IU/L
same,ALT,24 h,46 IU/L
same,AST,24 h,67.6 IU/L
same,BUN,24 h,17.2 mg/dL
same,CRE,24 h,0.2 mg/dL
same,Ca,24 h,11.2 mg/dL
same,Cl,24 h,105.2 meq/L
same,DBIL,24 h,0.018 mg/dL
same,GLC,24 h,178.8 mg/dL
same,IP,24 h,8.6 mg/dL
same,K,24 h,4.4 meq/L
same,LDH,24 h,145.4 IU/L
same,Na,24 h,142 meq/L
same,PL,24 h,157.6 mg/dL
same,RALB,24 h,2.6 g/dL
same,TBIL,24 h,0.056 mg/dL
same,TC,24 h,83 mg/dL
same,TG,24 h,112.4 mg/dL
same,TP,24 h,5.7 g/dL
same,gamma-GTP,24 h,1 IU/L
